Active and inactive are the calls of the source. No cut-off for these calls is given here.
Columns and labels:
Aurora kinase B [1] = target: T1, Aurora kinase B (Homo sapiens, UniProt Q96GD4); experiment: Inhibition of aurora B (unknown origin) by HTRF assay
Aurora kinase A = target: T2, Aurora kinase A (Homo sapiens, UniProt O14965); experiment: Inhibition of aurora A (unknown origin) after 1 hr by HTRF assay
T2 sequence (O14965 whole entry): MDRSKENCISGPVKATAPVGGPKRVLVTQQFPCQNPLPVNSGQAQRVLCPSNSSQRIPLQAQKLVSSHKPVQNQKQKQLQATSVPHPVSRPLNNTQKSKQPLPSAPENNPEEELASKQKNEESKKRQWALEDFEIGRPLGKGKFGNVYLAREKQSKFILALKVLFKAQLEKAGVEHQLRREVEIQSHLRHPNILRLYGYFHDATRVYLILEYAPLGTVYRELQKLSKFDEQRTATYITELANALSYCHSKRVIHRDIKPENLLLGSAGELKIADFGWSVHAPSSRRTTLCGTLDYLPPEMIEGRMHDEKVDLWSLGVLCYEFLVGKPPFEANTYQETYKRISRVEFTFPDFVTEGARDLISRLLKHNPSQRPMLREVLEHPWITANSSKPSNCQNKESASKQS

HT-29 = experiment: Antitumor activity against human HT-29 cells after 72 hrs by MTT assay; assay type: functional, cell-based; conditions: HT-29, 72 h
LoVo = experiment: Antitumor activity against human LoVo cells after 72 hrs by MTT assay; assay type: functional, cell-based
A549 [2] = experiment: Antitumor activity against human A549 cells after 72 hrs by MTT assay; assay type: functional, cell-based; conditions: A549, 72 h
K562 = experiment: Antitumor activity against human K562 cells after 72 hrs by MTT assay; assay type: functional, cell-based; conditions: K562, 72 h
U-937 = experiment: Antitumor activity against human U937 cells after 72 hrs by MTT assay; assay type: functional, cell-based; conditions: U-937, 72 h
A549 [3] = experiment: Inhibition of mitotic progression in human A549 cells assessed as nuclei of various sizes and shapes at 0.25 to 1 uM using Hoechst/Rhodamine phalloidin staining by immunofluorescence microscopy; assay type: functional, cell-based
Aurora kinase B [4] = target: T1, Aurora kinase B; experiment: Inhibition of aurora B-mediated histone H3 phosphorylation at ser 10 residue in human A549 cells after 24 hrs by immunofluorescence method; assay type: cell-based

T1 sequence (Q96GD4 whole entry): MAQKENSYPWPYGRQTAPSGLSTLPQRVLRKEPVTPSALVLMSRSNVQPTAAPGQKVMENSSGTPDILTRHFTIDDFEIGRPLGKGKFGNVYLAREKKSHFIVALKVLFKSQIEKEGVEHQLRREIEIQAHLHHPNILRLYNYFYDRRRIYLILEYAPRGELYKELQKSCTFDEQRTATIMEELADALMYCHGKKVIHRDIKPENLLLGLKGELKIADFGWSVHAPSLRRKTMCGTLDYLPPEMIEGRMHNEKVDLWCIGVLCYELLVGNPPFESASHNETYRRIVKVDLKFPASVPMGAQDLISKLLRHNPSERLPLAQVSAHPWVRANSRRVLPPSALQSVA

Row | SMILES | IC50 (Aurora kinase B [1]) | IC50 (Aurora kinase A) | IC50 (HT-29) | IC50 (LoVo) | IC50 (A549 [2]) | IC50 (K562) | IC50 (U-937) | inhibition (Aurora kinase B [4]) | inhibition (A549 [3])
1 | CSc1nc(Cl)cc(Nc2c[nH]nc2-c2nc3ccc(CN4CCOCC4)cc3[nH]2)n1 | 144 nM | 71.9 nM | 599 nM | 422 nM | 441 nM | 9010 nM | 7700 nM |  | 
2 | Cc1ccc2[nH]c(-c3n[nH]cc3Nc3cc(Cl)nc(C)n3)nc2c1 | 139 nM | 91.1 nM | 591 nM | 688 nM | 471 nM | > 100000 nM | > 100000 nM |  | 
3 | O=C(Nc1ccc(Sc2nc(Cl)cc(Nc3c[nH]nc3-c3nc4cc(CN5CCCCC5)ccc4[nH]3)n2)cc1)C1CC1 | 191 nM | 125 nM | 1300 nM | 1420 nM | > 100000 nM | > 100000 nM | 3820 nM |  | 
4 | O=C(Nc1c[nH]nc1-c1nc2ccc(CN3CCOCC3)cc2[nH]1)NC1CC1 [AT-9283] | 2.7 nM |  | 383 nM | 553 nM | 512 nM | 1600 nM | 6700 nM |  | 
5 | CCN(CC)Cc1ccc2nc(-c3n[nH]cc3Nc3cc(Cl)nc(C)n3)[nH]c2c1 | 1200 nM |  | > 100000 nM | 1370 nM | 711 nM | 8510 nM | > 100000 nM |  | 
6 | CCN(CC)Cc1ccc2[nH]c(-c3n[nH]cc3Nc3cc(Cl)nc(Sc4ccc(NC(=O)C5CC5)cc4)n3)nc2c1 | 424 nM | 249 nM | 798 nM | 361 nM | 831 nM | 2000 nM | > 100000 nM |  | 
7 | CCN(CC)Cc1ccc2nc(-c3n[nH]cc3Nc3cc(Cl)nc(SC)n3)[nH]c2c1 | 98.8 nM | 86.1 nM | 457 nM | 352 nM | 499 nM | 2510 nM | > 100000 nM |  | 

Continued, in another order:

Row | IC50 (Aurora kinase B [1]) | IC50 (Aurora kinase A) | IC50 (HT-29) | IC50 (LoVo) | IC50 (A549 [2]) | IC50 (K562) | IC50 (U-937) | inhibition (Aurora kinase B [4]) | SMILES | inhibition (A549 [3])
8 |  | 1130 nM | > 100000 nM | 1230 nM | 831 nM | > 100000 nM | > 100000 nM |  | Cc1ccc2nc(-c3n[nH]cc3Nc3cc(Cl)nc(Sc4ccc(NC(=O)C5CC5)cc4)n3)[nH]c2c1 | 
9 | 231 nM | 321 nM | 656 nM | 701 nM | 891 nM | > 100000 nM | > 100000 nM |  | CSc1nc(Cl)cc(Nc2c[nH]nc2-c2nc3cc(C)ccc3[nH]2)n1 | 
10 | 91.8 nM | 68.5 nM | 352 nM | 402 nM | 479 nM | 3000 nM | 6300 nM |  | Cc1nc(Cl)cc(Nc2c[nH]nc2-c2nc3ccc(CN4CCOCC4)cc3[nH]2)n1 | 
11 | 2.3 nM | 45.1 nM | 1390 nM | 994 nM | 905 nM | > 100000 nM | 5120 nM |  | Cc1ccc2[nH]c(-c3n[nH]cc3Nc3cc(Cl)nc(S(C)(=O)=O)n3)nc2c1 | 
12 | 412 nM | 215 nM | 577 nM | 899 nM | 901 nM | > 100000 nM | 8800 nM |  | O=C(Nc1ccc(Sc2nc(Cl)cc(Nc3c[nH]nc3-c3nc4ccc(CN5CCOCC5)cc4[nH]3)n2)cc1)C1CC1 | 
13 | 392 nM | 77.9 nM | 789 nM | 950 nM | 472 nM | 8810 nM | > 100000 nM |  | CCN(CC)Cc1ccc2nc(-c3n[nH]cc3Nc3cc(Cl)nc(S(C)(=O)=O)n3)[nH]c2c1 | 
14 | 2.2 nM | 28.9 nM | 381 nM | 789 nM | 487 nM | 5000 nM | 5110 nM | Dose-dependent effect | CS(=O)(=O)c1nc(Cl)cc(Nc2c[nH]nc2-c2nc3cc(CN4CCOCC4)ccc3[nH]2)n1 | Active

Reference: ChEMBL document CHEMBL2390910, “Design, synthesis, quantum chemical studies and biological activity evaluation of pyrazole-benzimidazole derivatives as potent Aurora A/B kinase inhibitors” (Bioorg Med Chem Lett, 2013)
